{
  "source": "paper PMC10146491",
  "about": "“Meroterpenoids from Gongolaria abies-marina against Kinetoplastids: In Vitro Activity and Programmed Cell Death Study” (Pharmaceuticals, 2023)",
  "key": {"[1]": {"tested_on": "promastigotes of L. amazonensis", "experiment": "Leishmanicidal activity assay (Alamar Blue), promastigotes", "assay_type": "cell-based, Leishmania amazonensis", "experimental": "(§1) To carry out the experiments, promastigotes of Leishmania amazonensis (MHOM/BR/77/LTB0016) and L. donovani (MHOM/IN/90/GE1F8R) and epimastigotes of Trypanosoma cruzi (Y strain) were employed. Leishmania species were cultured in Schneider’s medium (Sigma-Aldrich, Madrid, Spain), supplemented with 10% fetal bovine serum (VWR, Biowest, Nuaillé, France) and incubated at 26 °C. RPMI 1640 medium (Gibco, Thermo Fisher, Madrid, Spain) with or without phenol red was also used to culture the parasites at the same temperature. Epimastigotes of T. cruzi were cultured in liver infusion tryptose (LIT) medium supplemented with 10% fetal bovine serum at 26 °C. A cytotoxicity assay was performed using a murine macrophage cell line J774A.1 (ATCC TIB-67), which was maintained in Dulbecco’s modified Eagle’s medium (Gibco, Thermo Fisher, Madrid, Spain) supplemented with 10% of fetal bovine serum at 37 °C in a 5% CO2 atmosphere.\n(§2) With the objective of determining the antiparasitic activity of the compounds isolated from G. abies-marina, leishmanicidal activity assays were performed against promastigote stages of L. amazonensis and L. donovani, as well as a trypanocidal activity assay performed against epimastigote stages of T. cruzi. In both parasites, a colorimetric assay was used based on the Alamar Blue reagent (Life Technologies, Madrid, Spain) as previously described by Bethencourt-Estrella et al. (2021).\n(§3) In a sterile 96 well-plate, serial dilutions of the extracts, fractions or compounds isolated from G. abies-marina were performed in RPMI 1640 medium without phenol red (in the case of Leishmania spp.) or in LIT (in the case of T. cruzi) with a final volume of 100 µL. Parasites were added to wells to reach a concentration of 5 × 10^5 (Leishmania spp.) or 2.5 × 10^5 (T. cruzi) until a final volume of 200 µL/well. Next, 10% of Alamar Blue® was placed into each well and the plate was incubated for 72 h at 26 °C. Finally, the fluorescence of each well was measured using an EnSpire® Multimode Plate Reader (Perkin Elmer, Madrid, Spain) (544 nm excitation, 590 nm emission) and the concentration that inhibits 50% of the parasite population (IC50) was calculated using a non-linear regression analysis with 95% confidence limits. Miltefosine and benznidazol were used as reference drugs. To analyze the data and calculate the IC50, SigmaPlot 12.0 statistical analysis software (Systat Software Inc, Palo Alto, CA, USA) was used.\n(§4) The 50% inhibitory concentration (IC50) and 50% cytotoxic concentration (CC50) values were obtained using Sigma Plot 12.0 statistical analysis software (Systat Software) and calculated using a non-linear regression analysis with 95% confidence limits. Leishmanicidal and trypanocidal activity assays, as well as cytotoxicity assays, were performed three times on different days, and the results were expressed as means ± standard deviations. The analysis of variance was determined using a one-way ANOVA using the GraphPad.PRISM® 9.0 software program (GraphPad Software, San Diego, CA, USA). Differences at p < 0.05 were considered statistically significant."}, "[2]": {"tested_on": "L. donovani promastigotes", "experiment": "Mitochondrial membrane potential (JC-1 assay)", "assay_type": "cell-based, Leishmania donovani", "conditions": "IC90, 24 h", "experimental": "(§5) To study the mechanism of cell death induced in parasites by compounds isolated from Gongolaria abies-marina, a common step was carried out to perform the following five experiments. The promastigotes of Leishmania spp. and epimastigotes of T. cruzi were incubated at the IC90 levels of the compounds (previously calculated) for 24 h at 26 °C. After incubation, the parasites were centrifuged at 3000 rpm for 10 min at 4 °C. The pellets were resuspended following the manufacturer’s instructions for each kit. A JC-1 Mitochondrial Membrane Potential Assay Kit® (Cayman Chemical, Ann Arbor, MI, USA) was used to analyze variations in the mitochondrial membrane potential of the parasites after incubation at the IC90 levels of the compounds. After centrifugation, the parasites were resuspended in the same buffer and transferred to a black 96-well plate. JC-1 was added following the manufacturer’s instructions as also described by López-Arencibia et al. (2020). Green and red fluorescence was measured using an EnSpire® Multimode Plate Reader (PerkinElmer, Madrid, Spain)."}, "[3]": {"experiment": "Cytotoxicity assay (Alamar Blue)", "assay_type": "cell-based", "conditions": "mouse, J774A.1 murine macrophage cell line, J774A.1, 24 h, read-out: Cytotoxicity CC50, murine macrophages", "experimental": "as §1\nIn a sterile 96-well plate, murine macrophages of the cell line J774A.1 were placed to reach an amount of 10^5 cells per well using RPMI 1640 medium without phenol red. After murine macrophage attachment, 50 µL serial dilutions of the isolated compounds were added in each well until reaching a final volume of 100 µL. Next, 10% of Alamar Blue® was placed into each well and the plate was incubated for 24 h at 37 °C with a 5% CO2 atmosphere. Finally, the plates were analyzed using an EnSpire® Multimode Plate Reader (PerkinElmer, Madrid, Spain), as described in the previous section, and the 50% cytotoxic concentration (CC50) values were calculated.\nas §4"}, "T. cruzi epimastigotes [4]": {"tested_on": "T. cruzi epimastigotes", "experiment": "Mitochondrial membrane potential (JC-1 assay)", "assay_type": "cell-based, Trypanosoma cruzi", "conditions": "IC90, 24 h", "experimental": "as §5"}, "[5]": {"tested_on": "L. amazonensis promastigotes", "experiment": "Mitochondrial membrane potential (JC-1 assay)", "assay_type": "cell-based, Leishmania amazonensis", "conditions": "IC90, 24 h", "experimental": "as §5"}, "[6]": {"tested_on": "epimastigotes of Trypanosoma cruzi", "experiment": "Trypanocidal activity assay (Alamar Blue), epimastigotes", "assay_type": "cell-based", "experimental": "as §1, §2, §3, §4"}, "[7]": {"tested_on": "promastigotes of L. donovani", "experiment": "Leishmanicidal activity assay (Alamar Blue), promastigotes", "assay_type": "cell-based, Leishmania donovani", "experimental": "as §1, §2, §3, §4"}, "T. cruzi epimastigotes [8]": {"tested_on": "T. cruzi epimastigotes", "experiment": "ATP level analysis (Cell Titer-Glo)", "assay_type": "cell-based, Trypanosoma cruzi", "conditions": "IC90 of compound, 24 h", "experimental": "(§6) To study the mechanism of cell death induced in parasites by compounds isolated from Gongolaria abies-marina, a common step was carried out to perform the following five experiments. The promastigotes of Leishmania spp. and epimastigotes of T. cruzi were incubated at the IC90 levels of the compounds (previously calculated) for 24 h at 26 °C. After incubation, the parasites were centrifuged at 3000 rpm for 10 min at 4 °C. The pellets were resuspended following the manufacturer’s instructions for each kit. After the incubation of promastigotes and epimastigotes of the parasites with the IC90 of the compounds, the changes in ATP levels were measured using a Cell Titer-Glo® Luminescent Cell Viability Assay (Promega, WI, USA). The assay was carried out in a white 96-well plate following the manufacturer’s instructions, as previously described by Cartuche et al. (2020). The luminescence was measured using an EnSpire® Multimode Plate Reader (PerkinElmer, Madrid, Spain)."}, "[9]": {"tested_on": "intracellular amastigotes of L. amazonensis", "experiment": "In vitro effect against amastigote stage in infected macrophages", "assay_type": "cell-based, Leishmania amazonensis", "experimental": "To determine the in vitro effect against the amastigote stage of L. amazonensis, murine macrophages were infected. In a sterile 96 well-plate, macrophages of the J774A.1 cell line were placed in RPMI 1640 to reach 10^5 macrophages per well. This plate was incubated at 37 °C in a 5% CO2 atmosphere. After one hour of incubation, 100 µL of stationary-phase promastigotes of 7-day-old culture was added in a 10:1 ratio (10^6 parasites per well) and the plates were re-incubated at 37 °C for 24 h to achieve maximum infection. Then, the wells were washed with fresh medium to remove non-phagocytosed promastigotes. The infected macrophages were treated with the compounds isolated for 24 h. Then, the medium was removed carefully to be replaced by 30 μL of 0.05% SDS and the plate was shaken for 30 s. After broke macrophages, 170 μL of Schneider’s medium was added to each well to give a final volume of 200 μL and 20 μL of Alamar Blue® was added to the plate being incubated at 26 °C for 72 h, as described by López-Arencibia et al. (2017). After 72 h of incubation, the plates were analyzed using the same protocol for the promastigote test."}, "[10]": {"tested_on": "L. amazonensis promastigotes", "experiment": "ATP level analysis (Cell Titer-Glo)", "assay_type": "cell-based, Leishmania amazonensis", "conditions": "IC90 of compound, 24 h", "experimental": "as §6"}, "[11]": {"tested_on": "L. donovani promastigotes", "experiment": "ATP level analysis (Cell Titer-Glo)", "assay_type": "cell-based, Leishmania donovani", "conditions": "IC90 of compound, 24 h", "experimental": "as §6"}},
  "data": [
    {"smiles": "COc1c(C)cc(O)cc1C/C=C(\\C)CC(=O)/C=C(\\C)CCCC(C)=O", "note": "[Cystomexicone B (1), cystomexicone B]", "values": [
      {"measurement": "Selectivity index (CC50/IC50), L. amazonensis", "setting": "[1]; CC50 in murine macrophages", "result": "> 7.61"},
      {"measurement": "IC50", "setting": "[1]; Leishmania amazonensis, 72 h, Alamar Blue, read-out: Antikinetoplastid activity IC50, L. amazonensis", "result": "36.6 ± 4.24", "unit": "µM"},
      {"measurement": "Mitochondrial membrane potential changes (JC-1)", "setting": "[2]", "result": "does not produce significant changes"},
      {"measurement": "CC50 at 24 h", "setting": "[3]", "result": "> 279", "unit": "µM"},
      {"measurement": "Mitochondrial membrane potential changes (JC-1)", "setting": "T. cruzi epimastigotes [4]", "result": "does not produce significant changes"},
      {"measurement": "Mitochondrial membrane potential changes (JC-1)", "setting": "[5]", "result": "does not produce significant changes"},
      {"measurement": "Selectivity index (CC50/IC50), T. cruzi", "setting": "[6]; CC50 in murine macrophages", "result": "> 14.53"},
      {"measurement": "IC50", "setting": "[6]; Trypanosoma cruzi, 72 h, Alamar Blue, read-out: Antikinetoplastid activity IC50, T. cruzi", "result": "19.2 ± 2.62", "unit": "µM"},
      {"measurement": "Selectivity index (CC50/IC50), L. donovani", "setting": "[7]; CC50 in murine macrophages", "result": "> 1.12"},
      {"measurement": "IC50", "setting": "[7]; Leishmania donovani, 72 h, Alamar Blue, read-out: Antikinetoplastid activity IC50, L. donovani", "result": "248.3 ± 0.94", "unit": "µM"},
      {"measurement": "ATP levels relative to negative control", "setting": "T. cruzi epimastigotes [8]", "result": "significantly decreased"},
      {"measurement": "ATP levels relative to negative control", "setting": "T. cruzi epimastigotes [8]; listed as cystomexicone B (1)", "result": "most affected"},
      {"measurement": "Selectivity index (CC50/IC50), amastigotes of L. amazonensis", "setting": "[9]; CC50 in murine macrophages", "result": ">11.36"},
      {"measurement": "IC50", "setting": "[9]; Leishmania amazonensis, J774.A1, intracellular amastigotes in J774A.1 macrophages, 24 h treatment", "result": "24.6 ± 0.83", "unit": "µM"},
      {"measurement": "ATP levels relative to negative control", "setting": "[10]", "result": "significantly decreased"},
      {"measurement": "ATP levels relative to negative control", "setting": "[11]", "result": "significantly decreased"}
    ]}
  ]
}
